In patent publication US12593847B2, “Formulations” (SYNGENTA CROP PROTECTION AG, priority 2020, dated 2026):
Where two headings read alike, the source gives them in different places. Values belong to the compound of their own block, whether it stands above or below them.

How the values were obtained:
[1] = Example 2: storage stability of standard formulation (pH 6.05), one year at 20-25° C.; assay type: physicochemical; conditions: Example 2 formulation; for Concentration at t = 0: pH 6.05, before storage; for % loss: pH 6.05, one year at 20-25° C.; for Concentration at t = 1 year and 20-25 ° C.: pH 6.05, stored one year at 20-25° C.
Procedure: Another standard formulation containing the follow active ingredients was created as follows:
The formulation was stored for one year at 20-25° C. The pH of 6.05 providing excellent chemical stability for picarbutrazox as well at the other active ingredients.

[2] = Example 7: picarbutrazox and thiamethoxam stability relative to pH, 54° C. for 2 weeks; assay type: physicochemical; conditions: for Change in thiamethoxam concentration after storage at 54° C. for 2 weeks: Example 7 formulation (20.8% w/w thiamethoxam); for Change in picarbutrazox concentration after storage at 54° C. for 2 weeks: Example 7 formulation (0.42% w/w picarbutrazox)
Description: Two standard formulations containing the follow active ingredients were created. The standard formulations contained customary formulation components and were then pH adjusted via the addition of either Sodium Hydroxide (NaOH) or Phosphoric Acid (H3PO4) to obtain a range of pH's.

[3] = Example 8: picarbutrazox and thiamethoxam stability relative to pH, 1 month at 50° C.; assay type: physicochemical; conditions: for Change in thiamethoxam concentration after storage for 1 month at 50° C.: Example 8 formulation (20.8% w/w thiamethoxam); for Change in picarbutrazox concentration after storage for 1 month at 50° C.: Example 8 formulation (0.42% w/w picarbutrazox)
Description: Four standard formulations containing the follow active ingredients were created. The standard formulations contained customary formulation components and were then pH adjusted via the addition of either Sodium Hydroxide (NaOH) or Phosphoric Acid (H3PO4) to obtain a range of pH's.

[4] = cited from earlier work; for time for degradation in water of at least 50%: pH 9
[5] = pH 7; cited from earlier work
[6] = Example 9: storage stability of 43.3% w/w picarbutrazox formulation; assay type: physicochemical; conditions: Example 9 formulation, picarbutrazox only AI at 43.3% w/w, Initial pH 7.2
Procedure: A standard formulation was prepared which contained picarbutrazox as the only Al at 43.3% w/w concentration. The initial pH was pH 7.2.

[7] = Example 10: storage stability of mixtures of 36% w/w and 0.8% w/w PCBX formulations, 2 weeks at 54 C.; assay type: physicochemical; conditions: for Actual Measured % w/w PCBX in the combined mixture: before storage
Procedure: A standard formulation was prepared which contained picarbutrazox at 36% w/w concentration. This was then mixed in differing ratios with a standard formulation which contained picarbutrazox at 0.8% w/w concentration. The mixtures were stored for 2 weeks at 54 C.

[8] = 0% of 36% w/w PCBX formulation + 100% of 0.8% w/w PCBX formulation
[9] = mixture 30% of 36% w/w PCBX formulation + 70% of 0.8% w/w PCBX formulation
[10] = mixture 60% of 36% w/w PCBX formulation + 40% of 0.8% w/w PCBX formulation
[11] = mixture 90% of 36% w/w PCBX formulation + 10% of 0.8% w/w PCBX formulation

Compound: N#Cc1c[nH]cc1-c1cccc2c1OC(F)(F)O2 [Fludioxonil]
Concentration at t = 0 [1]: 0.955 % w/w
% loss [1]: 1%
Concentration at t = 1 year and 20-25 ° C. [1]: 0.944 % w/w

Compound: COCC(=O)N(c1c(C)cccc1C)[C@H](C)C(=O)OC [Mefenoxam]
Concentration at t = 0 [1]: 5.78 % w/w
% loss [1]: 0%
Concentration at t = 1 year and 20-25 ° C. [1]: 5.77 % w/w

Concentration at t = 0 [1]: 0.974 % w/w
% loss [1]: 0%
Concentration at t = 1 year and 20-25 ° C. [1]: 0.970 % w/w
Compound: Cn1cc(C(=O)Nc2ccccc2C2CC2C2CC2)c(C(F)F)n1 (centres unmarked) [Sedaxane]

Compound: CN1COCN(Cc2cnc(Cl)s2)/C1=N\[N+](=O)[O-] [Thiamethoxam]
Concentration at t = 0 [1]: 19.5 % w/w
% loss [1]: 2%
Concentration at t = 1 year and 20-25 ° C. [1]: 19.1 % w/w
Change in thiamethoxam concentration after storage at 54° C. for 2 weeks ([2]; Initial pH 7.2): −1%
Change in thiamethoxam concentration after storage at 54° C. for 2 weeks ([2]; Initial pH 8.0): −3%
Change in thiamethoxam concentration after storage for 1 month at 50° C. ([3]; Initial pH 5.7): −1%
Change in thiamethoxam concentration after storage for 1 month at 50° C. ([3]; Initial pH 6.0): −1%
Change in thiamethoxam concentration after storage for 1 month at 50° C. ([3]; Initial pH 7.2): −5%
Change in thiamethoxam concentration after storage for 1 month at 50° C. ([3]; Initial pH 8.0): −7%
Hydrolysis ([4]; pH 1, 5, 7 (25° C.)): stable
Hydrolysis DT50 ([4]; pH 9, 25° C.): 7.3 to 15.6 days

Compound: CNC(=O)c1cc(Cl)cc(C)c1NC(=O)c1cc(Br)nn1-c1ncccc1Cl [chlorantraniliprole]
Aqueous photolysis DT50 [5]: (25° C.). Aqueous photolysis DT50 0.37 d (pH 7).
Hydrolysis ([4]; pH 4-7 (25° C.)): stable
Hydrolysis DT50 ([4]; pH 9, 25° C.): 10 days
time for degradation in water of at least 50% [4]: less than 30 days

Compound: CNC(=O)c1cc(C#N)cc(C)c1NC(=O)c1cc(Br)nn1-c1ncccc1Cl [cyantraniliprole]
Hydrolysis DT50 ([4]; pH 4, 20° C.): 261 days
Hydrolysis DT50 ([4]; pH 7, 20° C.): 61 days
Hydrolysis DT50 ([4]; pH 9, 20° C.): 1.8 days
time for degradation in water of at least 50% [4]: less than 30 days

Concentration at t = 0 [1]: 0.365 % w/w
% loss [1]: 0%
Concentration at t = 1 year and 20-25 ° C. [1]: 0.367 % w/w
Change in picarbutrazox concentration after storage at 54° C. for 2 weeks ([2]; Initial pH 7.2): −10%
Change in picarbutrazox concentration after storage at 54° C. for 2 weeks ([2]; Initial pH 8.0): −6%
Change in picarbutrazox concentration after storage for 1 month at 50° C. ([3]; Initial pH 5.7): −16%
Change in picarbutrazox concentration after storage for 1 month at 50° C. ([3]; Initial pH 6.0): −16%
Change in picarbutrazox concentration after storage for 1 month at 50° C. ([3]; Initial pH 7.2): −13%
Change in picarbutrazox concentration after storage for 1 month at 50° C. ([3]; Initial pH 8.0): −5%
Change in picarbutrazox concentration after storage for 1 month at 50° C. [6]: −1%
Change in picarbutrazox concentration after storage for 2 weeks at 54° C. [6]: −2%
Change in PCBX concentration after storage for 2 weeks at 54 C. [7, 8]: 11%
Actual Measured % w/w PCBX in the combined mixture [7, 8]: 0.85% w/w
Change in PCBX concentration after storage for 2 weeks at 54 C. [7, 9]: 0%
Actual Measured % w/w PCBX in the combined mixture [7, 9]: 11.4% w/w
Change in PCBX concentration after storage for 2 weeks at 54 C. [7, 10]: 0%
Actual Measured % w/w PCBX in the combined mixture [7, 10]: 21.8% w/w
Change in PCBX concentration after storage for 2 weeks at 54 C. [7, 11]: 0%
Actual Measured % w/w PCBX in the combined mixture [7, 11]: 32.6% w/w
Compound: Cn1nnnc1/C(=N\OCc1cccc(NC(=O)OC(C)(C)C)n1)c1ccccc1 [picarbutrazox, 1,1-Dimethylethyl N-(6-((((Z)-((1-methyl-1H-tetrazol-5-yl)phenylmethylene)amino)oxy)methyl)-2-pyridinyl)carbamate]
